{
  "source": "patent US8609135B2",
  "about": "“Anthracycline derivatives” (Nuclisome AB, priority 2004, dated 2013)",
  "key": {"SKBR-3 cells": {"test_system": "SKBR-3 cells", "assay": "Growth curves of SKBR-3 cells (toxicity)", "type": "cell-based, human", "conditions": "SKBR-3 cell monolayers, 0.5 ng/ml, 2.5 h incubation", "description": "Growth curves^125I-Compound 1, Compound 1, doxorubicin, or daunorubicin were dissolved in culture media to a concentration of 0.5 ng/ml. The specific activity of ^125I-Compound 1 was 100 kBq/ng. SKBR-3 cells were incubated with drug in 60 mm plastic Petri dishes as triplicates, for 2.5 h. Control-cells were incubated with ordinary culture medium. After incubation, the medium was removed from all dishes and cells were washed six times with serum-free medium. Cells were detached from dishes by adding 0.5 ml of trypsin/EDTA for 10 min at a temperature of 37° C. After re-suspension in 1 ml of culture media cells were counted using a coulter counter (Z2 Coulter Counter, Beckman Coulter) and sub-cultivated to 10^5 cells to generate growth curves. Growth curves were corrected for loss of cells at each sub-cultivation."}, "[1]": {"test_system": "human tumour A431 cells (squamous carcinoma)", "assay": "Binding of 125I-Compound 1 to permealised A431 cells (gamma counter, fluorescence microscopy)", "type": "cell-based", "description": "Human cultured tumour cells […] were grown as monolayer cultures using Ham's F-10 medium (Biochrom AG, Berlin, Germany) containing 10% fetal calf serum, glutamine (2 mM), streptomycin (100 μg/ml), and penicillin (100 IU/ml) at a temperature of 37° C. in a humidified 5% CO2 incubator.\nCultured human tumour A431 cells (squamous carcinoma) were grown on glass slides, cooled to a temperature of 4° C., and washed with phosphate buffer. Cells were inactivated in methanol for 15 minutes at a temperature of −20° C. and then quickly washed at a temperature of 4° C. with phosphate buffer. Cells were thereafter permealised by acetone treatment for 10 seconds at a temperature of 4° C. After drying cells were incubated with ^125I-Compound 1 at room temperature for one hour, washed, and analyzed for radioactivity using a gamma counter (1480 Wallac Wizard, Perkin Elmer, Wellesley, Mass., USA). In addition, cells were inspected by fluorescence microscopy."}, "[2]": {"assay": "Drug retention in liposomes", "type": "physicochemical", "conditions": "incubated in medium at 37° C. for 24 h", "description": "Liposomes were composed of 1,2-distearoyl-sn-glycero-3-phosphatidyl-choline (DSPC), cholesterol, 1,2-distearoyl-sn-glycero-3-phosphatidyl-ethanolamine-N-[methoxy (poly-ethyleneglycol)-2000 (DSPE-PEG2000) at a molar ratio of 57:40:3. Liposomes were prepared by the lipid film hydration method. Briefly, cholesterol and lipids were dissolved in chloroform. The solvent was evaporated under a gentle stream of nitrogen gas and the lipid film was dried under vacuum overnight. The lipid film was hydrated with 300 mM citrate buffer (pH 4) for 1 h with intermediate vortex mixing at a lipid concentration of 20 mM at a temperature of 60° C. Liposomes were repetitively frozen in liquid nitrogen and thawed at a temperature of 60° C. five times before extrusion. Liposomes were extruded ten times through two stacked polycarbonate membranes filters (Whatman Inc. Nucleopore, Newton, Mass.) with a pore size of 100 nm at a room temperature using an Avanti Mini-extruder (Avanti Polar Lipids Inc., Alabaster, Ala.). […]\nLiposomes were incubated at temperatures of 37° C. or 60° C. […] The fluorescence intensity of samples was determined at an excitation wavelength of 468 nm and an emission wavelength of 589 nm. The percentage of encapsulated drug after incubation was determined relative to the amount of encapsulated drug before incubation."}, "calf thymus DNA (CT DNA) [3]": {"test_system": "calf thymus DNA (CT DNA)", "assay": "Fluorescence titration, binding to calf thymus DNA", "conditions": "room temperature, BPES buffer pH 7, n=3", "description": "Type 1 calf thymus DNA sodium salt (Sigma-Aldrich Co., St Louis, M.O., USA) was hydrated in BPES buffer (6 mM Na2HPO4, 2 mM NaH2PO4, 1 mM EDTA, 185 mM NaCl, pH 7) at a concentration of approximately 2 mg/ml and sonicated at approximately 8 μA in a MSE Soniprep 150 ultrasonic disintegrator (Integrated Services TCP Inc., Palisades Park, N.J., USA) for 30 min in a water bath on ice. The sample was then dialyzed for 48 h against BPES using Slide-A-Lyzer® dialysis cassettes (10,000 MWCO) (Pierce, Rockford, Ill., USA). The final DNA concentration was determined spectrophotometrically on a HP8453 spectrophotometer (Hewlett-Packard Company Houston Tex., USA) at a wavelength of 260 nm using an extinction coefficient of 12,824 M (bp)^−1 cm^−1.\nFluorescence titration experiments were performed on a SPEX 1680 Fluorolog spectrofluorometer (SPEX Industries Inc., Edison, N.J., USA) at room temperature with λex=480 nm (slid width 2.5 mm) and λem=592 nm (slid width 2.5 mm). The initial free drug concentration was 1 μM. […] The concentration of bound drug was calculated by the difference between CT and Cf. Binding constants (Ki) and exclusion parameters (n) were calculated by plotting r/Cf versus r (Scatchard plot), where r is the number of moles of bound drug per mol DNA base pairs. Theoretical curves for the neighbor exclusion model were calculated by using the algorithm: r/Cf=Ki(1−nr)[(1−nr)/[1−(n−1)r]]^n−1 (J. Mol. Biol. 86, 469-489, 1974)\nwhere Ki (M^−1) is the intrinsic binding constant and n (base pairs) is the exclusion parameter. The parameters Ki and n were varied to generate theoretical curves that closest fitted the experimental data."}, "[4]": {"assay": "Dissolution of drug in 10% (wt/vol) sucrose solution", "type": "physicochemical", "conditions": "0.5 mM in 10% (wt/vol) sucrose solution", "description": "Compound 1 (3′-N-(4-hydroxy-3-iodobenzyl)-13-(R/S)-dihydrodaunorubicin, stereoisomeric mixture) and Compound 2 (3′-N-(4-Hydroxy-3-iodobenzyl)daunorubicin), structures are shown below, or doxorubicin (Sigma Aldrich, St. Louis, Mo., USA) were encapsulated into liposomes using the pH-gradient driven loading protocol by Mayer et al. The pH gradient across the liposome membrane was generated by exchanging the extravesicular 300 mM citrate buffer (pH 4) with 20 mM N-[2-hydroxyethyl]piperazine-N′-[2-ethanesulfonic acid] (HEPES) buffered 150 mM saline (HBS) (pH 7.5) on a Sephadex G-50 column. Doxorubicin was dissolved in HBS at a concentration of 1 mM. Compound 1 was dissolved at a concentration of 0.5 mM in 10% (wt/vol) sucrose solution. […] A preheated drug solution was added to the liposomes at a 0.2 drug-to-lipid molar ratio. The mixture was incubated for 15 min at a temperature of 60° C. with intermittent mixing using a Vortex-apparatus resulting in 100% drug encapsulation."}, "calf thymus DNA (CT DNA) [5]": {"test_system": "calf thymus DNA (CT DNA)", "conditions": "literature values; cited from earlier work"}, "[6]": {"conditions": "cited from earlier work"}, "[7]": {"test_system": "thyroid cancer, lymphomas, bladder carcinomas, sarcomas, ovarian carcinomas, leukemias", "conditions": "cited from earlier work"}},
  "note": "Where two headings read alike, the source gives them in different places.",
  "data": [
    {"smiles": "COc1cccc2c1C(=O)c1c(O)c3c(c(O)c1C2=O)C[C@@](O)(C(C)O)C[C@@H]3O[C@H]1C[C@@H](NCc2ccc(O)c(I)c2)[C@H](O)C(C)O1", "note": "(mixture of isomers) [Compound 1, 3′-N-(4-hydroxy-3-iodobenzyl)-13-(R/S)-dihydrodaunorubicin]", "values": [
      {"measurement": "cytotoxic effect (growth curves)", "setting": "SKBR-3 cells", "result": "Neither of the latter compounds had any significant cytotoxic effect"},
      {"measurement": "localisation in cells by fluorescence microscopy", "setting": "[1]", "result": "bound to the cell nucleus and not located inside the cytoplasm"},
      {"measurement": "drug remaining encapsulated in liposomes", "setting": "[2]", "result": "more than 90%"},
      {"measurement": "n (exclusion parameter)", "setting": "calf thymus DNA (CT DNA) [3]", "result": 3.4, "unit": "base pairs"}
    ]},
    {"smiles": "COc1cccc2c1C(=O)c1c(O)c3c(c(O)c1C2=O)C[C@@](O)(C(C)=O)C[C@@H]3O[C@H]1C[C@@H](NCc2ccc(O)c(I)c2)[C@H](O)C(C)O1", "note": "(some centres unmarked) [Compound 2, 3′-N-(4-Hydroxy-3-iodobenzyl)daunorubicin]", "values": [
      {"measurement": "dissolution of drug", "setting": "[4]", "result": "did not dissolve completely"},
      {"measurement": "n (exclusion parameter)", "setting": "calf thymus DNA (CT DNA) [3]", "result": 3.7, "unit": "base pairs"}
    ]},
    {"smiles": "COc1cccc2c1C(=O)c1c(O)c3c(c(O)c1C2=O)C[C@@](O)(C(C)=O)C[C@@H]3O[C@H]1C[C@H](N)[C@H](O)[C@H](C)O1", "note": "[daunorubicin, Daunorubicin]", "values": [
      {"measurement": "n (exclusion parameter), literature value", "setting": "calf thymus DNA (CT DNA) [5]", "result": 3.5, "unit": "base pairs"},
      {"measurement": "cytotoxic effect (growth curves)", "setting": "SKBR-3 cells", "result": "Neither of the latter compounds had any significant cytotoxic effect"},
      {"measurement": "n (exclusion parameter)", "setting": "calf thymus DNA (CT DNA) [3]", "result": 3.6, "unit": "base pairs"}
    ]},
    {"smiles": "COc1cccc2c1C(=O)c1c(O)c3c(c(O)c1C2=O)C[C@@](O)(C(=O)CO)C[C@@H]3O[C@H]1C[C@H](N)[C@H](O)[C@H](C)O1", "note": "[doxorubicin, Doxorubicin]", "values": [
      {"measurement": "n (exclusion parameter), literature value", "setting": "calf thymus DNA (CT DNA) [5]", "result": 3.8, "unit": "base pairs"},
      {"measurement": "cytotoxic effect (growth curves)", "setting": "SKBR-3 cells", "result": "Neither of the latter compounds had any significant cytotoxic effect"},
      {"measurement": "cardiac toxicity up to congestive heart failure, share of patients", "setting": "[6]; patients", "result": "1-10%"},
      {"measurement": "side effect alopecia, share of patients", "setting": "[6]; patients", "result": 100, "unit": "%"},
      {"measurement": "side effect nausea and vomiting, share of patients", "setting": "[6]; patients", "result": "20-55%"},
      {"measurement": "acute dose-limiting toxicity: bone-marrow suppression, leukopenia, and stomatitis, share of treated patients", "setting": "[6]; treated patients", "result": 80, "unit": "%"},
      {"measurement": "overall response rate", "setting": "[7]; bladder carcinomas", "result": 33, "unit": "%"},
      {"measurement": "overall response rate", "setting": "[7]; leukemias", "result": 24, "unit": "%"},
      {"measurement": "overall response rate", "setting": "[7]; lymphomas", "result": 41, "unit": "%"},
      {"measurement": "overall response rate", "setting": "[7]; ovarian carcinomas", "result": 25, "unit": "%"},
      {"measurement": "overall response rate", "setting": "[7]; sarcomas", "result": 26, "unit": "%"},
      {"measurement": "overall response rate", "setting": "[7]; thyroid cancer", "result": 45, "unit": "%"},
      {"measurement": "drug remaining encapsulated in liposomes", "setting": "[2]", "result": "Approximately 80%"},
      {"measurement": "n (exclusion parameter)", "setting": "calf thymus DNA (CT DNA) [3]", "result": 3.9, "unit": "base pairs"}
    ]}
  ]
}
